Data published in publication PMC7549094 (Journal of Medicinal Chemistry, 2020).

Key:
[1] = test system: L. donovani; assay: murine model of visceral leishmaniasis, liver parasite burden by qPCR; type: in vivo; settings: mice infected with L. donovani; 1 mg/kg b.i.d. PO, 8 days
Description: Formulation of study drugs for in vivo efficacy experiments. LXE408 administered to mice during efficacy experiments was formulated as a suspension in distilled water containing 0.5% methylcellulose and 0.5% Tween-80 (mouse model of visceral leishmaniasis) or hydroxypropylcellulose and Tween-80 (mouse models of cutaneous leishmaniasis). Miltefosine was formulated as a solution in distilled water containing 0.5% methylcellulose and 0.5% Tween-80.
Mouse model of visceral leishmaniasis. Female BALB/c mice (6-8 weeks old) were infected by tail vein injection with 4x 107 L. donovani MHOM/ET/67/HU3 splenic amastigotes. Seven days after infection, animals were orally dosed for 8 days with vehicle (0.5% MC/0.5% Tween-80 in distilled water), miltefosine (12 mg/kg once-daily), or LXE408 (twice-daily). At the end of treatment, liver samples were collected and L. donovani parasite burdens were quantified by qPCR as follows. L. donovani genomic DNA was extracted from drug-treated mice livers using the DNeasy Blood and Tissue Kit (Qiagen). Two types of DNA were quantified in parallel using the TaqMan assays for L. donovani major surface

[2] = test system: r BZD
[3] = biological target: T1, hr PPARg antag (Homo sapiens, UniProt P37231); assay: receptor profile (Table S4); type: biochemical
T1 sequence (P37231 1-505): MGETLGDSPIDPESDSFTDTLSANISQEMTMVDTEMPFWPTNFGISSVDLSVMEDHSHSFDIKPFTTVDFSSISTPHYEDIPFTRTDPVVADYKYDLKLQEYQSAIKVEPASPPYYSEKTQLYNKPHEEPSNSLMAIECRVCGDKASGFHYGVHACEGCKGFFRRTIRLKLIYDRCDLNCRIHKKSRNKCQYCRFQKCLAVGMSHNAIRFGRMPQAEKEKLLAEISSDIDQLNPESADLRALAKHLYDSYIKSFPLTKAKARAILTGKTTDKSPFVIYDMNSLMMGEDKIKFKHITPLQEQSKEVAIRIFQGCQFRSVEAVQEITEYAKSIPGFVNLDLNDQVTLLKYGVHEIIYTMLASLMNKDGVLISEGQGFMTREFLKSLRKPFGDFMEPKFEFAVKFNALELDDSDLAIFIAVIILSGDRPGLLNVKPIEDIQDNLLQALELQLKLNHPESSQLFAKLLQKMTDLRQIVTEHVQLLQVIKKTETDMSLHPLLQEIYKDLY

[4] = test system: L. major; assay: BALB/c mouse lesion cure model of Old World cutaneous leishmaniasis; type: in vivo; settings: BALB/c mice infected with L. major; 20 mg/kg b.i.d. PO, 10 days
Description: Data in the graph show progression of lesion sizes at the base of the tail of BALB/c mice infected with 1 × 10^7L. major parasites after 10 days of treatment. Experimental time points represent the mean lesion sizes ± SEM (n = 6). Single-factor ANOVA (Dunnet’s test) was used to determine the statistical significance of differences in lesion sizes between vehicle and compound-treated groups (P < 0.05).
Lesion cure model of Old World leishmaniasis (L. major). Female BALB/c mice (6 weeks old) were
used in this model. Mice were infected intradermally at base of the tail with 100 µl parasite culture
containing 1x107 L. major MHOM/IR/-/173 stationary phase promastigotes. Starting from the third week
post-infection, the lesion induration diameters (length=D1 and width=D2) were measured using a caliper
instrument (Fisher Scientific, USA) with 0.1 mm sensitivity. Length and width measurements were taken to account for asymmetrical lesions. Lesion size area was then calculated using the πR1*R2 formula
(where R1=D1/2 and R2 = D2/2). Lesions were measured at a 10 -day (+/- 2 days) interval until the end
of the study. Experimental endpoint is lesion cure or % lesion size re duction relative to lesion size in
vehicle-treated group. Lesion cure is considered 100% re-epithelialization of the lesion (lesion size = 0
10 mg/kg and 20 mg/kg twice-daily). In a positive control treatment group, animals were dosed by […]

[5] = biological target: hr CB1 antag (Homo sapiens, UniProt P21554); assay: receptor profile (Table S4); type: biochemical
Chain of hr CB1 antag (P21554 whole entry): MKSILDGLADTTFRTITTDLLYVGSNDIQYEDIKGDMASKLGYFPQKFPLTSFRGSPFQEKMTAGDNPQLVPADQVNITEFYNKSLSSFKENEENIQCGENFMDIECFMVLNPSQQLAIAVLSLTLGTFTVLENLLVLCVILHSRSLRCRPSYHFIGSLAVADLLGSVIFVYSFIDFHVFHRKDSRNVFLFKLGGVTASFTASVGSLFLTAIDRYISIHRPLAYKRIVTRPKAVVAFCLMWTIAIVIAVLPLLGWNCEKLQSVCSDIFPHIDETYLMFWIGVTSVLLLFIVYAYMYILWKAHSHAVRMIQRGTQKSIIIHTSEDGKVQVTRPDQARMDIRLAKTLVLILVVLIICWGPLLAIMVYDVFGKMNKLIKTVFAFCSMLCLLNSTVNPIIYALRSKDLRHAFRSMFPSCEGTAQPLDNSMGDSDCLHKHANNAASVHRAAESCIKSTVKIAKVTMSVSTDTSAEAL

[6] = biological target: hr KDR (Homo sapiens, UniProt P35968); assay: receptor profile (Table S4); type: biochemical
Chain of hr KDR (P35968 20-1356): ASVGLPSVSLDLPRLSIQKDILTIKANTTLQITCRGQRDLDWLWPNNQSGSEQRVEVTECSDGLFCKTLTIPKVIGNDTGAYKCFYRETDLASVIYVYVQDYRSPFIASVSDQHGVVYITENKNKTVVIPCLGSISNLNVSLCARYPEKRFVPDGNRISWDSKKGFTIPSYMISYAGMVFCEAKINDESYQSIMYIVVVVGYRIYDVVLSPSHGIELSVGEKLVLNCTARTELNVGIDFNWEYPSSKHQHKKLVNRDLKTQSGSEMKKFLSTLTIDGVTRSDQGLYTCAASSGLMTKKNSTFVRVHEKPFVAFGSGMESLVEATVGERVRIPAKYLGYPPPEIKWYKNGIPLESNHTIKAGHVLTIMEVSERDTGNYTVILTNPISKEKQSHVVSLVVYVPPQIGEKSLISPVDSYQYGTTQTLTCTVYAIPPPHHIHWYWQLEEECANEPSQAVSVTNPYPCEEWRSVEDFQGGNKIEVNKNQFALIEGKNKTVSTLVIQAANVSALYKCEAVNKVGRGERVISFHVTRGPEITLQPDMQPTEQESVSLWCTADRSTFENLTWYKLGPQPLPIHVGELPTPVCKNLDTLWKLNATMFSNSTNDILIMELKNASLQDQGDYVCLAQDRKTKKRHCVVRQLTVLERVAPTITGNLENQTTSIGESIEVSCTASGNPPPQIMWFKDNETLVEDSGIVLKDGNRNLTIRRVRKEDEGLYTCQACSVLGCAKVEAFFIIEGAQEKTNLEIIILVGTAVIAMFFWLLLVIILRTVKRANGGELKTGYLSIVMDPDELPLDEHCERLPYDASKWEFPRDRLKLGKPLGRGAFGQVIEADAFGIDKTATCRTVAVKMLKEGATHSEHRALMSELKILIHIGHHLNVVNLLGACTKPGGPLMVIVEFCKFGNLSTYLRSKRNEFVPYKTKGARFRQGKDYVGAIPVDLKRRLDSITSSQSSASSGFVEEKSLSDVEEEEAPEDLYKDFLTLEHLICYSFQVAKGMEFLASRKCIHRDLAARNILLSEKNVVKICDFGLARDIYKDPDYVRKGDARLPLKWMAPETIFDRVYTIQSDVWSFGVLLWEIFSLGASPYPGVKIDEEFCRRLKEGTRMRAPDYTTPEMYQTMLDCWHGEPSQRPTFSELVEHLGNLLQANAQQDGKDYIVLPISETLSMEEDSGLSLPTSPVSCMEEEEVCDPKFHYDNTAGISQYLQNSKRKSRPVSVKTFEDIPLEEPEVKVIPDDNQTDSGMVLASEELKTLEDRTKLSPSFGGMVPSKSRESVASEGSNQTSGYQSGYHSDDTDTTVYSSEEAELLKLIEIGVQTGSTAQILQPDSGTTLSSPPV

[7] = biological target: T2, hr 5-HT1A ag (Homo sapiens, UniProt P08908); assay: receptor profile (Table S4); type: biochemical
T2 sequence (P08908 1-422): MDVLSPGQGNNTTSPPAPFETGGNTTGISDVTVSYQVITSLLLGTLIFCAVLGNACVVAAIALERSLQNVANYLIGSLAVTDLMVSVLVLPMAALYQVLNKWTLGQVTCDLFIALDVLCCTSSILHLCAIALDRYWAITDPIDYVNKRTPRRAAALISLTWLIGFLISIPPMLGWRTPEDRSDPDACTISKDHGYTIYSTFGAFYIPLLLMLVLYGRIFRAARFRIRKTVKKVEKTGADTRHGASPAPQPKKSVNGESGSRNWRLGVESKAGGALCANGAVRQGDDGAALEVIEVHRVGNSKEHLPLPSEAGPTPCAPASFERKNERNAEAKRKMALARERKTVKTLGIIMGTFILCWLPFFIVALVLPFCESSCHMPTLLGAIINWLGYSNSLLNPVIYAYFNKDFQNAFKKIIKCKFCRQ

[8] = biological target: hr Ad2A (Homo sapiens, UniProt P29274); assay: receptor profile (Table S4); type: binding
Chain of hr Ad2A (P29274 whole entry): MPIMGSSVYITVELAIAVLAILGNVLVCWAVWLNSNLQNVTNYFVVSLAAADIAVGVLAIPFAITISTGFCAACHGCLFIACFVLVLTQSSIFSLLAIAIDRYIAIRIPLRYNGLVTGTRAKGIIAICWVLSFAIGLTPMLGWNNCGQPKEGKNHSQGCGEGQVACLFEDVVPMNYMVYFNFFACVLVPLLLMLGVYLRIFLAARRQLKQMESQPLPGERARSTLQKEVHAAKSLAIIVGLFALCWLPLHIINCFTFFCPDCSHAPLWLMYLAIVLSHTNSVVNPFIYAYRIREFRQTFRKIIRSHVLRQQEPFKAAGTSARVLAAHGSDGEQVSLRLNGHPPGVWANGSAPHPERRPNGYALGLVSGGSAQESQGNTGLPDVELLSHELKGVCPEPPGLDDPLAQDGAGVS

[9] = biological target: hr ERa antag (Homo sapiens, UniProt P03372); assay: receptor profile (Table S4); type: biochemical
Chain of hr ERa antag (P03372 whole entry): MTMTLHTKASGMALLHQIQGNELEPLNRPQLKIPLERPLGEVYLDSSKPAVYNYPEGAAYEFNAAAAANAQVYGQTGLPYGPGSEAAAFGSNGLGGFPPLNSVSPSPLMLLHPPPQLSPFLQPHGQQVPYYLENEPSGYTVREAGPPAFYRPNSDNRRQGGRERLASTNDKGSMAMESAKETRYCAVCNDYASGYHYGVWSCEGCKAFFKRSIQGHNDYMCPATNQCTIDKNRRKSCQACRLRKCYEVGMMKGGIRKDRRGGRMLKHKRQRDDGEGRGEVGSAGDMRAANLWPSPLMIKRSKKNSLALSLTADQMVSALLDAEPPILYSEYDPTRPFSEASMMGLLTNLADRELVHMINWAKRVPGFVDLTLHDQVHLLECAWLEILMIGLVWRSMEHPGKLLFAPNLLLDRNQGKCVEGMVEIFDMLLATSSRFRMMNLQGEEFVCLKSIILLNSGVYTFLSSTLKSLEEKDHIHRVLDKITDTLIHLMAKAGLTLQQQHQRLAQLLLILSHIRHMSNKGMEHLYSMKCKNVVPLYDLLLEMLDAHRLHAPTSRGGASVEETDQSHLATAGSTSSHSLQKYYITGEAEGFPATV

[10] = biological target: T3, hr GR antag (Homo sapiens, UniProt P04150); assay: receptor profile (Table S4); type: biochemical
T3 sequence (P04150 1-777): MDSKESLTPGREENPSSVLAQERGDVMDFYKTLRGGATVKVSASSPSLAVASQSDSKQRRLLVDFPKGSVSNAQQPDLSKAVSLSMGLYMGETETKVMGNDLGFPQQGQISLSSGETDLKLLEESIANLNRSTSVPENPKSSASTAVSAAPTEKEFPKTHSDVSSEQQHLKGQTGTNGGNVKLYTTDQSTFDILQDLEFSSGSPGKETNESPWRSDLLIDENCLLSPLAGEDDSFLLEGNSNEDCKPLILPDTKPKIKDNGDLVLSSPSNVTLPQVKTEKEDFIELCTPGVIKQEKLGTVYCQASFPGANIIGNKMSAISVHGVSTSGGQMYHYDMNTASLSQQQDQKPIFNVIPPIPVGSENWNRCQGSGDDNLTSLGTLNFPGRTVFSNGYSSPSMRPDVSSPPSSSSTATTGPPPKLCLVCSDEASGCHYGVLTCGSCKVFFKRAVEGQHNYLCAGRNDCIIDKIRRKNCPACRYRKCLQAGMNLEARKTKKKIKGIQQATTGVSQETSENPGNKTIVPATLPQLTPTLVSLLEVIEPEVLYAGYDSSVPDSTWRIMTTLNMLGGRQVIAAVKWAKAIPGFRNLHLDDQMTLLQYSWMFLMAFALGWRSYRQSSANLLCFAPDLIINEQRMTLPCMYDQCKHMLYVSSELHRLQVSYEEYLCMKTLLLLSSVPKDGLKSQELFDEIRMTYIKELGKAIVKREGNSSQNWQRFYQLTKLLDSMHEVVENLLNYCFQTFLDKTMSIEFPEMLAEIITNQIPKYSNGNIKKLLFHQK

[11] = microsomal extraction ratio, 1 h incubation in microsomes
[12] = biological target: hr V1a (Homo sapiens, UniProt P37288); assay: receptor profile (Table S4); type: binding
Chain of hr V1a (P37288 whole entry): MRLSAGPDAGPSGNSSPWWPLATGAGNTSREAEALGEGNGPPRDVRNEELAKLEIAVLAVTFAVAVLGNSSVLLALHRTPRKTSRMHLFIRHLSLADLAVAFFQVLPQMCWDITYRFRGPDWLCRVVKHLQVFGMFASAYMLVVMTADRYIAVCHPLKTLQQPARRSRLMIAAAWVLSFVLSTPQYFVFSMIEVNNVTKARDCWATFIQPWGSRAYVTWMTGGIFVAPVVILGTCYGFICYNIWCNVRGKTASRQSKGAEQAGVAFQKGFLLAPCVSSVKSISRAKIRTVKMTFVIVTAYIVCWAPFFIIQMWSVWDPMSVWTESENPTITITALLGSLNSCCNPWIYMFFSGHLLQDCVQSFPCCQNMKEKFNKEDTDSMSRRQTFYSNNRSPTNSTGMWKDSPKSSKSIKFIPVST

[13] = biological target: hr Beta2 ag (Homo sapiens, UniProt P07550); assay: receptor profile (Table S4); type: biochemical
Chain of hr Beta2 ag (P07550 whole entry): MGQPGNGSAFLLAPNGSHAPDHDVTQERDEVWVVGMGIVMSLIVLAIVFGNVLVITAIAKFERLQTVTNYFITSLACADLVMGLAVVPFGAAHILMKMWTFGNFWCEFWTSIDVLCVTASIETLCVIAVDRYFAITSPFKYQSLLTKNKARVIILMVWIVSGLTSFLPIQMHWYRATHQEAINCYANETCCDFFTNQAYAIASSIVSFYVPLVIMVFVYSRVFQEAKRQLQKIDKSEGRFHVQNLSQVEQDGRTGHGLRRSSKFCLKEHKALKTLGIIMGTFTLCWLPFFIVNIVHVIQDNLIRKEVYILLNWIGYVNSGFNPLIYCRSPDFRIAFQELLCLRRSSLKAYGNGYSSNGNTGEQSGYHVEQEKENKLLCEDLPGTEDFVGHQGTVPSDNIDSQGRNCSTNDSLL

Cc1nc(C)c(C(=O)Nc2ccc(F)c(-c3nc4ncc(-c5ncccc5C)cn4n3)c2)o1 [compound 1, N-(4-Fluoro-3-(6-(3-methylpyridin-2-yl)-[1,2,4]triazolo[1,5-a]pyrimidin-2-yl)phenyl)-2,4-dimethyloxazole-5-carboxamide]
reduction of parasite burden in the liver [1]: 95%
% inh/act @ 10 µM [2]: 7%
% inh/act @ 30 µM [2]: 7%
EC50/IC50 ([3]; hr PPARg antag): > 30 µM
inhibition at 10 µM ([3]; read-out: % inh/act @ 10 µM): -5%
inhibition at 30 µM ([3]; read-out: % inh/act @ 30 µM): 16%
therapeutic effect on skin lesions [4]: comparable to that of liposomal amphotericin B
EC50/IC50 ([5]; hr CB1 antag): > 30 µM
inhibition at 10 µM ([5]; read-out: % inh/act @ 10 µM): -47%
inhibition at 30 µM ([5]; read-out: % inh/act @ 30 µM): -57%
EC50/IC50 ([6]; hr KDR): > 30 µM
inhibition at 10 µM ([6]; read-out: % inh/act @ 10 µM): 21%
inhibition at 30 µM ([6]; read-out: % inh/act @ 30 µM): 22%
EC50/IC50 ([7]; hr 5-HT1A ag): > 30 µM
inhibition at 10 µM ([7]; read-out: % inh/act @ 10 µM): 1%
inhibition at 30 µM ([7]; read-out: % inh/act @ 30 µM): 1%
EC50/IC50 ([8]; hr Ad2A): > 30 µM
inhibition at 10 µM ([8]; read-out: % inh/act @ 10 µM): 26%
inhibition at 30 µM ([8]; read-out: % inh/act @ 30 µM): 52%
EC50/IC50 ([9]; hr ERa antag): > 30 µM
inhibition at 10 µM ([9]; read-out: % inh/act @ 10 µM): -8%
inhibition at 30 µM ([9]; read-out: % inh/act @ 30 µM): -4%
EC50/IC50 ([10]; hr GR antag): > 30 µM
inhibition at 10 µM ([10]; read-out: % inh/act @ 10 µM): 0%
inhibition at 30 µM ([10]; read-out: % inh/act @ 30 µM): 10%
ER human [11]: 0.27
EC50/IC50 ([12]; hr V1a): > 30 µM
inhibition at 10 µM ([12]; read-out: % inh/act @ 10 µM): 11%
inhibition at 30 µM ([12]; read-out: % inh/act @ 30 µM): 19%
EC50/IC50 ([13]; hr Beta2 ag): > 30 µM
inhibition at 10 µM ([13]; read-out: % inh/act @ 10 µM): 1%
inhibition at 30 µM ([13]; read-out: % inh/act @ 30 µM): 7%
